Patent publication US20230227466A1, “SUBSTITUTED THIENOPYRIMIDINES THAT INTERACT WITH THE RAS SUPERFAMILY FOR THE TREATMENT OF CANCERS, INFLAMMATORY DISEASES, RASOPATHIES, AND FIBROTIC DISEASE” (SHY Therapeutics, LLC, priority 2020, published 2023)
Read-outs that look alike come from different tables or passages of the source.

Key:
KRas G12C mutant = target: T1, KRas G12C mutant (Homo sapiens, UniProt P01116, G12C); experiment: Ras GTP binding domain inhibition assay (labeled-GTP competition, cell-free)
T1 construct: made in house
Description: (§1) This is a competitive binding assay. It involves the immobilization of a protein on solid phase, interaction with a small molecule drug candidate, and then competitive binding with a labeled native GTP or GDP ligand.
(§2) In theory, the assay is suitable for use with any GTP or GDP binding protein.
(§3) The following method was developed as specific assay for the following proteins: KRas wild type, KRas Q61H mutant, KRas G12C mutant, KRas G12D mutant, Rac-1, and Rho-A.
(§4) The small GTPases proteins: KRas wild type. KRas Q61H mutant, KRas G12C mutant, KRas G12D mutants, Rac-1, and Rho-A were expressed as His-tagged proteins. In addition, the Guanosine nucleotide Exchange Factor (GEF) Sos protein (residues 556-1049) was expressed as a His-tagged protein. In cells, the guanine nucleotide exchange factor Sos protein promotes activation of Ras proteins by stimulating an exchange of GDP for GTP. The inclusion of Sos to the Ras GTP binding domain inhibition assay may be considered as an alternative representation of physiological cellular conditions for evaluating the inhibitory activity of some of the tested small molecules.
(§5) For the assay, all purified small GTPases proteins were diluted in Buffer-I or Buffer-II to a final concentration of 10-30 μg/mL. 200 μL of each diluted protein was added to a nickel-coated 96-well plate and incubated overnight at 4° C. Then the protein solution was discarded and 200 μL of Buffer-I or Buffer-II was added to each well in the presence of 1% DMSO. Compounds to be tested were added to the protein-coated wells at final concentration of 20 μM, and incubated for 3 hours at room temperature with and without 10-30 μg/mL of Sos added to the final hour of the incubation. When performing IC50 measurements a serial dilution of all tested concentrations was added. Then Cy3-GTP or Cy5-GTP was added to each well to a final concentration of 100 nM. The labeled GTP was incubated for 45 minutes at room temperature. Following GTP incubation, wells were washed 3× in Buffer-I or Buffer-II and 200 μL of Buffer-I or Buffer-II was added to each well. Following washes, the amount of bound labeled-GTP was measured using a SpectraMax M3 (Molecular Devices).

KRas G12D mutant = target: T2, KRas G12D mutant (Homo sapiens, UniProt P01116, G12D); experiment: as above
T2 construct: made in house
Description: as §1, §2, §3, §4, §5

KRas Q61H mutant = target: T3, KRas Q61H mutant (Homo sapiens, UniProt P01116, Q61H); experiment: as above
T3 construct: made in house
Description: as §1, §2, §3, §4, §5

[1] = test system: MIA-PaCa-2 pancreatic cancer cell line (KRAS G12C); experiment: Cell proliferation assay (CellTiter 96 Aqueous One); type: cell-based; conditions: Homo sapiens; for IC50: MIA PaCa-2, MIA PaCa-2; for inhibition at 10 µM: MIA PaCa-2, read-out: % inh cell proliferation (10 μM) in MIA PaCa-2
Method: Cell lines: Human tumor-derived cell lines were purchased from American Type Culture Collection. Human tumor-derived pancreatic cancer cell line MIA-PACA2 (having a KRAS G12C mutation) and Panc-1 (having a KRAS G12D mutation), and Human non-small cell lung cancer (NSCLC) cell line A549 (having a KRAS G12S mutation) were grown in complete DMEM-High Glucose. Human colon cancer cell line SW-620 (having a KRAS G12V mutation) was grown in RPMI. All cell lines were supplemented with penicillin (100 U/mL), streptomycin (100 μg/mL), and 10% heat-inactivated FBS at 37° C. in a humidified incubator with 5% CO2.
Method: Cells were plated at 2000 to 5000 cells/well density in 96-wells plate and cultured overnight. Small molecules to be tested were added to the cells in the final concentration of 10 μM in the presence of 0.3% DMSO and 10% FBS, and incubated for 2-4 days at 37° C. in a humidified incubator with 5% CO2. For IC50 value determination, serial dilutions of compounds were added to cells under the same conditions.
Assay: At the end of the incubation period, cell viability was measured using the CellTiter 96® Aqueous One Solution Cell Proliferation Assay according to manufacturer specifications (Promega, Madison, Wis.). The percentage of small molecules inhibition of cellular proliferation was calculated from raw data.

KRas wild type = KRas wild type (Homo sapiens, UniProt P01116); experiment: Ras GTP binding domain inhibition assay (labeled-GTP competition, cell-free); design: made in house
Description: as §1, §2, §3, §4, §5

Rac-1 = Rac-1 (Homo sapiens, UniProt P63000); experiment: as above; design: made in house
Description: as §1, §2, §3, §4, §5

Rho-A = Rho-A (Homo sapiens, UniProt P61586); experiment: as above; design: made in house
Description: as §1, §2, §3, §4, §5

[2] = with SOS, read-out: KRas G12C mutant + SOS: % inh.
[3] = without SOS, read-out: KRas G12C mutant: % inh.
[4] = with SOS, read-out: KRas G12D mutant + SOS: % inh.
[5] = without SOS, read-out: KRas G12D mutant: % inh.
[6] = with SOS, read-out: KRas Q61H mutant + SOS: % inh.
[7] = without SOS, read-out: KRas Q61H mutant: % inh.
[8] = with SOS, read-out: KRas wild type + SOS: % inh.
[9] = without SOS, read-out: KRas wild type: % inh.
[10] = without SOS, read-out: Rac-1: % inh.
[11] = without SOS, read-out: Rho-A: % inh.

inhibition at 20 µM (KRas G12C mutant; [2])	inhibition at 20 µM (KRas G12C mutant; [3])	inhibition at 20 µM (KRas G12D mutant; [4])	inhibition at 20 µM (KRas G12D mutant; [5])	inhibition at 20 µM (KRas Q61H mutant; [6])	inhibition at 20 µM (KRas Q61H mutant; [7])	IC50 [1]	inhibition at 20 µM (KRas wild type; [8])	inhibition at 20 µM (KRas wild type; [9])	inhibition at 20 µM (Rac-1; [10])	inhibition at 20 µM (Rho-A; [11])	IC50 (KRas Q61H mutant; with SOS)	inhibition at 20 µM (Rac-1; with SOS, read-out: Rac-1 + SOS: % inh.)	inhibition at 20 µM (Rho-A; with SOS, read-out: Rho-A + SOS: % inh.)	Compound	inhibition at 10 µM [1]
76 to 100%	26 to 50%			76 to 100%	26 to 50%	5 to 10 µM	76 to 100%	0%	26 to 50%	26 to 50%				COc1cccc(Nc2nc(-c3nccn3C)nc3sc(-c4ccn(C(C)C)n4)c(C)c23)c1 [Compound 64, 6-(1-Isopropyl-1H-pyrazol-3-yl)-N-(3-methoxyphenyl)-5-methyl-2-(1-methyl-1H-imidazol-2-yl)thieno[2,3-d]pyrimidin-4-amine]	76 to 100%
51 to 75%	26 to 50%			26 to 50%	51 to 75%	5 to 10 µM	51 to 75%	26 to 50%	1 to 25%	51 to 75%				COC1CCCN(c2nc(-c3nccn3C)nc3sc(-c4ccn(C(C)C)n4)c(C(F)(F)F)c23)C1 (racemic) [Compound 75, Rac-6-(1-Isopropyl-1H-pyrazol-3-yl)-4-(3-methoxypiperidin-1-yl)-2-(1-methyl-1H-imidazol-2-yl)-5-(trifluoromethyl)thieno[2,3-d]pyrimidine]	76 to 100%
51 to 75%	1 to 25%			51 to 75%	51 to 75%	< 1 µM	76 to 100%	26 to 50%	1 to 25%	51 to 75%				COCC1CCN(c2nc(-c3nccn3C)nc3sc(-c4ccn(C(C)C)n4)c(C(F)(F)F)c23)C1 (racemic) [Compound 74, Rac-6-(1-Isopropyl-1H-pyrazol-3-yl)-4-(3-(methoxymethyl)pyrrolidin-1-yl)-2-(1-methyl-1H-imidazol-2-yl)-5-(trifluoromethyl)thieno[2,3-d]pyrimidine]	76 to 100%
76 to 100%	51 to 75%			76 to 100%	76 to 100%	< 1 µM	76 to 100%	76 to 100%	26 to 50%	51 to 75%				CO[C@@H]1CC[C@H]1CNc1nc(-c2nccn2C)nc2sc(-c3ccn(C(C)C)n3)c(C)c12 (racemic) [Compound 61, rac-6-(1-Isopropyl-1H-pyrazol-3-yl)-N-(((1S,2R)-2-methoxycyclobutyl)methyl)-5-methyl-2-(1-methyl-1H-imidazol-2-yl)thieno[2,3-d]pyrimidin-4-amine]	76 to 100%
76 to 100%	1 to 25%			51 to 75%	51 to 75%	1 to 4.99 µM	76 to 100%	1 to 25%	1 to 25%	51 to 75%				CO[C@H]1CC[C@@H](Nc2nc(-c3nccn3C)nc3sc(-c4ccn(C(C)C)n4)c(C(F)(F)F)c23)C1 (racemic) [Compound 73, Rac-6-(1-isopropyl-1H-pyrazol-3-yl)-N-((1R,3S)-3-methoxycyclopentyl)-2-(1-methyl-1H-imidazol-2-yl)-5-(trifluoromethyl)thieno[2,3-d]pyrimidin-4-amine]	76 to 100%

Further lines, the compound ahead of its results:

Compound	inhibition at 20 µM (KRas G12C mutant; [2])	inhibition at 20 µM (KRas G12C mutant; [3])	inhibition at 20 µM (KRas G12D mutant; [4])	inhibition at 20 µM (KRas G12D mutant; [5])	inhibition at 20 µM (KRas Q61H mutant; [6])	inhibition at 20 µM (KRas Q61H mutant; [7])	IC50 [1]	inhibition at 20 µM (KRas wild type; [8])	inhibition at 20 µM (KRas wild type; [9])	inhibition at 20 µM (Rac-1; [10])	inhibition at 20 µM (Rho-A; [11])	IC50 (KRas Q61H mutant; with SOS)	inhibition at 20 µM (Rac-1; with SOS, read-out: Rac-1 + SOS: % inh.)	inhibition at 20 µM (Rho-A; with SOS, read-out: Rho-A + SOS: % inh.)	inhibition at 10 µM [1]
Cc1c(-c2ccn(C(C)C)n2)sc2nc(-c3nccn3C)nc(NC[C@H]3CCC(=O)N3)c12 [Compound 52, (R)-5-(((6-(1-Isopropyl-1H-pyrazol-3-yl)-5-methyl-2-(1-methyl-1H-imidazol-2-yl)thieno[2,3-d]pyrimidin-4-yl)amino)methyl)pyrrolidin-2-one]	26 to 50%	51 to 75%	51 to 75%	51 to 75%	51 to 75%	51 to 75%	> 10 µM	51 to 75%	51 to 75%	51 to 75%	76 to 100%				1 to 25%
CO[C@@H]1CC[C@H](Nc2nc(-c3nccn3C)nc3sc(-c4ccn(C(C)C)n4)c(C)c23)C1 [Compound 31, 6-(1-Isopropyl-1H-pyrazol-3-yl)-N-((1S,3R)-3-methoxycyclopentyl)-5-methyl-2-(1-methyl-1H-imidazol-2-yl)thieno[2,3-d]pyrimidin-4-amine]	76 to 100%	51 to 75%	76 to 100%	26 to 50%	76 to 100%	26 to 50%	< 1 µM	76 to 100%	26 to 50%		51 to 75%	1 to 4.99 µM	26 to 50%	51 to 75%	76 to 100%
Cc1c(-c2ccn(C(C)C)n2)sc2nc(-c3nccn3C)nc(NCc3n[nH]c(=O)n3C)c12 [Compound 60, 5-(((6-(1-Isopropyl-1H-pyrazol-3-yl)-5-methyl-2-(1-methyl-1H-imidazol-2-yl)thieno[2,3-d]pyrimidin-4-yl)amino)methyl)-4-methyl-2,4-dihydro-3H-1,2,4-triazol-3-one]	51 to 75%	26 to 50%			51 to 75%	51 to 75%	> 10 µM	51 to 75%	51 to 75%	51 to 75%	76 to 100%				1 to 25%
Cc1c(-c2ccn(C(C)C)n2)sc2nc(-c3nccn3C)nc(NCc3c[nH]cn3)c12 [Compound 59, N-((1H-Imidazol-4-yl)methyl)-6-(1-isopropyl-1H-pyrazol-3-yl)-5-methyl-2-(1-methyl-1H-imidazol-2-yl)thieno[2,3-d]pyrimidin-4-amine]	76 to 100%	51 to 75%			76 to 100%	51 to 75%	5 to 10 µM	76 to 100%	26 to 50%	51 to 75%	51 to 75%				51 to 75%
